Data taken from publication PMC3914206.

Experiments:
Type in all cases: binding
panel of 442 kinases [1] = biological target: T1, panel of 442 kinases (Homo sapiens, UniProt P32298); details: Compound Concentration 10 µM
T1 construct: purchased KINOMEscan
Description: (§1) We assessed the selectivity of members of this scaffold using the KINOMEscan methodology across a near comprehensive panel of 442 kinases [[18,27]].

panel of 442 kinases [2] = biological target: T2, panel of 442 kinases (Homo sapiens, UniProt P43405); details: kinase SYK; compound concentration 10 µM
T2 construct: purchased KINOMEscan
Description: as §1

panel of 442 kinases [3] = biological target: T3, panel of 442 kinases (Homo sapiens, UniProt Q92630); details: Compound Concentration 10 µM
T3 construct: purchased KINOMEscan
T3 sequence (Q92630 1-601): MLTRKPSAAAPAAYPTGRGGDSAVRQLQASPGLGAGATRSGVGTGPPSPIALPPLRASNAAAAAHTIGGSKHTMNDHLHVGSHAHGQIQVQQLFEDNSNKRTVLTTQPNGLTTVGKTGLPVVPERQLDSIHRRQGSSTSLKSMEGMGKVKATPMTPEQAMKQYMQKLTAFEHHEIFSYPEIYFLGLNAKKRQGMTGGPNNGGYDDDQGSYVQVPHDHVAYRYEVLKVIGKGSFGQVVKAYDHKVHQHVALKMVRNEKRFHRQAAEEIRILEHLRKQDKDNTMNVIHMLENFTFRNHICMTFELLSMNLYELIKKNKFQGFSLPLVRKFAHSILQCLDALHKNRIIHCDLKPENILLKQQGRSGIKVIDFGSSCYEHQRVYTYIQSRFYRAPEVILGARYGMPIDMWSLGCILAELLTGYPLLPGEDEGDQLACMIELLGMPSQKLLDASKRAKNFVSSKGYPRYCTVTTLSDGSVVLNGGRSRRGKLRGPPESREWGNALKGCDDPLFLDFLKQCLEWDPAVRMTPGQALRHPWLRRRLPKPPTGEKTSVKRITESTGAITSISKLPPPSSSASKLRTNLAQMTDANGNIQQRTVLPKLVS
Description: as §1

T1 sequence (P32298 whole entry): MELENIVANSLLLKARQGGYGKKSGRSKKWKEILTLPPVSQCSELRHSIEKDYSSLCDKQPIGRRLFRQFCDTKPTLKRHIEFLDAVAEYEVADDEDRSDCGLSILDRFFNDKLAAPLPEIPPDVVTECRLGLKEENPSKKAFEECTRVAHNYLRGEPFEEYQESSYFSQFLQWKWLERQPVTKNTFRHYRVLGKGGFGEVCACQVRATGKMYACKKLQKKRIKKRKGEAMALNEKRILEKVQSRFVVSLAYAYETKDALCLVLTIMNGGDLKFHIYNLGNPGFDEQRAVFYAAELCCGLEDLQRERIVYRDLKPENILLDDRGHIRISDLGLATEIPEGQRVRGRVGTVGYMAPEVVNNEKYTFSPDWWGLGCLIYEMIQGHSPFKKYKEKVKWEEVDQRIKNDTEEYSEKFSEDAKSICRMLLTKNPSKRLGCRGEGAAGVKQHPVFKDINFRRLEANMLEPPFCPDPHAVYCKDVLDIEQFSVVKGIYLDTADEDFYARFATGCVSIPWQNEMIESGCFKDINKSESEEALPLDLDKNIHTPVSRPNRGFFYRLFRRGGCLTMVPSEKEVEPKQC

| SMILES | KINOMEscan: GRK4 (panel of 442 kinases [1]) | % Ctrl, SYK (panel of 442 kinases [2]) | KINOMEscan: DYRK2 (panel of 442 kinases [3]) |
| --- | --- | --- | --- |
| COc1cc(C(=O)N2CCC(N3CCN(C)CC3)CC2)ccc1Nc1ncc2c(n1)N(C1CCCC1)c1ccccc1C(=O)N2C [Compound 25, 11-cyclopentyl-2-((2-methoxy-4-(4-(4-methylpiperazin-1-yl)piperidine-1-carbonyl)phenyl)amino)-5-methyl-5H-benzo[e]pyrimido[5,4-b][1,4]diazepin-6(11H)-one] | 98 | 100 % Ctrl | 100 |
| CCOc1cc(C(=O)N2CCC(N3CCN(C)CC3)CC2)ccc1Nc1ncc2c(n1)N(C1CCCC1)c1ccccc1C(=O)N2C [Compound 26] | 100 | 100 % Ctrl | 100 |
| COc1cc(C(=O)N2CCC(N3CCN(C)CC3)CC2)ccc1Nc1ncc2c(n1)N1CCc3cccc(c31)C(=O)N2C [Compound 24] | – | 88 % Ctrl | 82 |
| COc1cc(C(=O)N2CCC(N3CCN(C)CC3)CC2)ccc1Nc1ncc2c(n1)N(C)c1ccccc1C(=O)N2C [15 (LRRK2-IN-1)] | 86 | 100 % Ctrl | 76 |
